Calls of active or inactive are those of the source. The calls are words filed in the database; no cut-off is given here. Starred links: 1 amine or outer side, 2 acyl side, 3 side chain; linkers in the order of their positions; H or OH if unused. Positions of bridges follow the written chain, without caps; N, C: chain ends. Non-standard residues stand in square brackets, D forms with d. Residues, ends and D or L forms follow the SMILES beside them. Chains are numbered I, II in the order given. Actinocin(1to9) = Cc1c2oc3c(C)ccc(C(=O)[*:2])c3nc-2c(C(=O)[*:1])c(N)c1=O; NMeV = CN[C@H](C(=O)O)C(C)C; Sar = CNCC(=O)O
What was measured:
Calu-1 [1] = assay: Antiproliferative activity against Calu1 cells; format: functional, cell-based; conditions: Homo sapiens
[2] = target: Cyclin-dependent kinase 4/cyclin D1 (Homo sapiens, UniProt P11802); assay: Inhibition of Cdk4/Cyclin D1; format: protein-complex assay
Chain of Cyclin-dependent kinase 4/cyclin D1 (P11802 whole entry): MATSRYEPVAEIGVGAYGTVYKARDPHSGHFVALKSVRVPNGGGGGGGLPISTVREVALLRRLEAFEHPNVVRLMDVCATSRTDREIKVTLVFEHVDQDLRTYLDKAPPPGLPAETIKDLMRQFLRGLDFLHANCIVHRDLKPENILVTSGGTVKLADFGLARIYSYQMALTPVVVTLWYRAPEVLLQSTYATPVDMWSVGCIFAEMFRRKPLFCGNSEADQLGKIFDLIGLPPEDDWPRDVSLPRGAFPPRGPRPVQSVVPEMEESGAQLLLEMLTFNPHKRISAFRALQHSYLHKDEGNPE
Chain of Cyclin-dependent kinase 4/cyclin D1 (P24385 whole entry, further chain): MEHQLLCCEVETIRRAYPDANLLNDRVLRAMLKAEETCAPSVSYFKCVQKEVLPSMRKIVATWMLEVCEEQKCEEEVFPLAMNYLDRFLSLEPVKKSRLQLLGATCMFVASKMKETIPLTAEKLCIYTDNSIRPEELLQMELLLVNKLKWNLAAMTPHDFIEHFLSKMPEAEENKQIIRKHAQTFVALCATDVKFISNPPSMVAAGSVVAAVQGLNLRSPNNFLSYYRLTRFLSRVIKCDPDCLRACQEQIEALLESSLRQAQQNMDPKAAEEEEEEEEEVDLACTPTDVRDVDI

A549 = assay: Antiproliferative activity against A549 cells; format: functional, cell-based; conditions: Homo sapiens
Calf thymus DNA [3] = assay: Ability to displace ethidium bromide from DNA; format: nucleic-acid assay
PC-3 = assay: Antiproliferative activity against PC3 cells; format: functional, cell-based; conditions: Homo sapiens
LS174T = assay: Antiproliferative activity against LS174T cells; format: functional, cell-based; conditions: Homo sapiens
[4] = target: Cyclin-dependent kinase 2/cyclin A (Homo sapiens, UniProt P24941); assay: Inhibition of Cdk2/Cyclin A; format: protein-complex assay
[5] = target: Cyclin-dependent kinase 4 (Homo sapiens) (UniProt P11802); assay: Inhibition of Cdk4-mediated phosphorylation of pRB in Calu1 cells at ser 780 residue at 6.2 uM after 24 hrs by Western blot analysis; format: functional, cell-based; conditions: Calu-1
Chain of Cyclin-dependent kinase 4 (Homo sapiens) (P11802 whole entry): as the sequence (P11802 whole entry) above

Homo sapiens = species on record: Homo sapiens; assay: Selectivity for Cdk4/Cyclin D1 over Cdk2/Cyclin A
Calu-1 [6] = assay: Cell cycle arrest in serum-starved Calu1 cells by accumulation at S phase after 24 hrs by FACS analysis; format: functional, Homo sapiens
[7] = target: T1, DNA topoisomerase 1 (Homo sapiens) (UniProt P11387); assay: Inhibition of DNA relaxation catalysed by topoisomerase1 at 10 uM; format: functional
T1 sequence (whole entry): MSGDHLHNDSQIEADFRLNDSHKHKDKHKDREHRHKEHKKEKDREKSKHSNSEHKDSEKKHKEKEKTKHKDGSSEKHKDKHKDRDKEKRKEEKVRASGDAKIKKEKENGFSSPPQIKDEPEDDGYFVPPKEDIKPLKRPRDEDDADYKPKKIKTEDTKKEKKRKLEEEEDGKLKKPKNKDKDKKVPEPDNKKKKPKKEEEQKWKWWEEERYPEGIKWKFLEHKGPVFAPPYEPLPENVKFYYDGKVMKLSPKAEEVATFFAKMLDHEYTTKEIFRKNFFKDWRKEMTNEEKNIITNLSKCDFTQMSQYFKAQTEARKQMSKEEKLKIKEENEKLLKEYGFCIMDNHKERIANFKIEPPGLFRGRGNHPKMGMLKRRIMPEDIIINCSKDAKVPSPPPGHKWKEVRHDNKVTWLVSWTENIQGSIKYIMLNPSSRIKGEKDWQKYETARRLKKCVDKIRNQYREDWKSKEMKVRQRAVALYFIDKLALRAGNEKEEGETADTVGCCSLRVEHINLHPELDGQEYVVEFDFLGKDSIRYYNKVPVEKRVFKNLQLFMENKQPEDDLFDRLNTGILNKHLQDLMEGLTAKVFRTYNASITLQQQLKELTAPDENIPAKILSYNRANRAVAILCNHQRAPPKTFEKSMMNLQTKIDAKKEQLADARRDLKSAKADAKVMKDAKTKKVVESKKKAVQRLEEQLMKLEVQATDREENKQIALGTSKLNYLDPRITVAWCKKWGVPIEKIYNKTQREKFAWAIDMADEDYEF

[8] = target: Cyclin-dependent kinase 4 (Homo sapiens) (UniProt P11802); assay: Inhibition of Cdk4-mediated phosphorylation of pRB in Calu1 cells at ser 795 residue at 6.2 uM after 24 hrs by Western blot analysis; format: functional, cell-based; conditions: Calu-1
Calu-1 [9] = assay: Cell cycle arrest in serum-starved Calu1 cells by accumulation at G2/M phase after 24 hrs by FACS analysis; format: functional, Homo sapiens
[10] = target: Cyclin-dependent kinase 4 (Homo sapiens) (UniProt P11802); assay: Inhibition of Cdk4-mediated phosphorylation of pRB in Calu1 cells at ser 780 residue after 24 hrs by Western blot analysis; format: functional, cell-based; conditions: Calu-1
Calf thymus DNA [11] = assay: Ability to displace ethidium bromide from DNA at 100 uM; format: nucleic-acid assay
[12] = target: Cyclin-dependent kinase 4 (Homo sapiens) (UniProt P11802); assay: Inhibition of Cdk4-mediated phosphorylation of pRB in Calu1 cells at ser […] residue at 6.2 uM after 24 hrs by Western blot analysis; format: functional, cell-based; conditions: Calu-1
Calu-1 [13] = assay: Cell cycle arrest in serum-starved Calu1 cells by accumulation at G0/G1 phase after 24 hrs by FACS analysis; format: functional, Homo sapiens
[14] = target: Cyclin-dependent kinase 4 (Homo sapiens) (UniProt P11802); assay: Inhibition of Cdk4-mediated phosphorylation of pRB in Calu1 cells at ser 795 residue after 24 hrs by Western blot analysis; format: functional, cell-based; conditions: Calu-1
[15] = target: Cyclin-dependent kinase 4 (Homo sapiens) (UniProt P11802); assay: Inhibition of Cdk4-mediated phosphorylation of pRB in Calu1 cells at ser […] residue after 24 hrs by Western blot analysis; format: functional, cell-based; conditions: Calu-1
Calu-1 [16] = assay: Ratio of cell cycle arrest in serum-starved Calu1 cells at G0/G1phase to S phase after 24 hrs by FACS analysis; format: functional, Homo sapiens
[17] = target: T1, DNA topoisomerase 1 (Homo sapiens); assay: Inhibition of DNA relaxation catalysed by topoisomerase1 at 100 uM; format: functional

SMILES: COc1ccccc1C(=O)N(C)CCc1c[nH]c2ccccc12
- IC50 (Calu-1 [1]): 146 µM
- IC50 [2]: 79 µM
- IC50 (A549): 103 µM
- Activity (Calf thymus DNA [3]): inactive
- IC50 (PC-3): 89 µM
- IC50 (LS174T): 106 µM
- IC50 [4]: 849 µM

SMILES: CN(CCc1c[nH]c2ccccc12)C(=O)c1ccc(Cl)cc1
- IC50 (Calu-1 [1]): 78 µM
- IC50 [2]: 38 µM
- IC50 (A549): 27 µM
- Activity (Calf thymus DNA [3]): inactive
- IC50 (PC-3): 47 µM
- IC50 (LS174T): 42 µM
- IC50 [4]: 731 µM

SMILES: Cc1ccc(C(=O)N(C)CCc2c[nH]c3ccccc23)cc1
- IC50 (Calu-1 [1]): 103 µM
- IC50 [2]: 63 µM
- IC50 (A549): 92 µM
- Activity (Calf thymus DNA [3]): inactive
- IC50 (PC-3): 55 µM
- IC50 (LS174T): 82 µM
- IC50 [4]: 790 µM

SMILES: CN(CCc1c[nH]c2ccccc12)C(=O)c1ccc(-c2ccccc2)cc1
- Activity [5]: Active
- Selectivity ratio (Homo sapiens): 100
- IC50 (Calu-1 [1]): 11.5 µM
- Activity (Calu-1 [6]): 4%
- IC50 [2]: 6.2 µM
- Activity [7]: inactive
- IC50 (A549): 3.5 µM
- Activity [8]: Active
- Activity (Calu-1 [9]): 30%
- Activity [10]: Active
- Activity (Calf thymus DNA [3]): inactive
- Activity (Calf thymus DNA [11]): < 5%
- Activity [12]: Active
- IC50 (PC-3): 6.2 µM
- Activity (Calu-1 [13]): 64%
- IC50 (LS174T): 3.5 µM
- Activity [14]: Active
- IC50 [4]: 521 µM
- Activity [15]: Active
- Ratio (Calu-1 [16]): 16
- Activity [17]: inactive

SMILES: CN(CCc1c[nH]c2ccccc12)C(=O)c1ccc(C(C)(C)C)cc1
- IC50 (Calu-1 [1]): 52 µM
- IC50 [2]: 49 µM
- IC50 (A549): 12 µM
- Activity (Calf thymus DNA [3]): inactive
- IC50 (PC-3): 15 µM
- IC50 (LS174T): 18 µM
- IC50 [4]: 658 µM

SMILES: Cc1ccccc1C(=O)N(C)CCc1c[nH]c2ccccc12
- IC50 (Calu-1 [1]): 141 µM
- IC50 [2]: 113 µM
- IC50 (A549): 110 µM
- Activity (Calf thymus DNA [3]): inactive
- IC50 (PC-3): 92 µM
- IC50 (LS174T): 105 µM
- IC50 [4]: 1130 µM

SMILES: CN(CCc1c[nH]c2ccccc12)C(=O)c1ccccc1Cl
- IC50 (Calu-1 [1]): 147 µM
- IC50 [2]: 46 µM
- IC50 (A549): 96 µM
- Activity (Calf thymus DNA [3]): inactive
- IC50 (PC-3): 92 µM
- IC50 (LS174T): 99 µM
- IC50 [4]: 784 µM

SMILES: CN(CCc1c[nH]c2ccccc12)C(=O)c1cccc(Br)c1
- IC50 (Calu-1 [1]): 144 µM
- IC50 [2]: 74 µM
- IC50 (A549): 91 µM
- Activity (Calf thymus DNA [3]): inactive
- IC50 (PC-3): 66 µM
- IC50 (LS174T): 89 µM
- IC50 [4]: 635 µM

SMILES: CN(CCc1c[nH]c2ccccc12)C(=O)c1cccc(F)c1
- IC50 (Calu-1 [1]): 136 µM
- IC50 [2]: 88 µM
- IC50 (A549): 106 µM
- Activity (Calf thymus DNA [3]): inactive
- IC50 (PC-3): 98 µM
- IC50 (LS174T): 97 µM
- IC50 [4]: 765 µM

SMILES: Cc1c2oc3c(C)ccc(C(=O)N[C@@H]4C(=O)N[C@H](C(C)C)C(=O)N5CCC[C@H]5C(=O)N(C)CC(=O)N(C)[C@@H](C(C)C)C(=O)O[C@@H]4C)c3nc-2c(C(=O)N[C@@H]2C(=O)N[C@H](C(C)C)C(=O)N3CCC[C@H]3C(=O)N(C)CC(=O)N(C)[C@@H](C(C)C)C(=O)O[C@@H]2C)c(N)c1=O [DACTINOMYCIN] (I: T[dV]P[Sar][NMeV] / II: T[dV]P[Sar][NMeV]; ester I:1-I:C, II:1-II:C; linker I:N-II:N via Actinocin(1to9))
- IC50 (Calf thymus DNA [3]): 35 µM

SMILES: Cc1cccc(C(=O)N(C)CCc2c[nH]c3ccccc23)c1
- IC50 (Calu-1 [1]): 136 µM
- IC50 [2]: 78 µM
- IC50 (A549): 96 µM
- Activity (Calf thymus DNA [3]): inactive
- IC50 (PC-3): 81 µM
- IC50 (LS174T): 88 µM
- IC50 [4]: 830 µM

SMILES: CN(CCc1c[nH]c2ccccc12)C(=O)c1ccccc1F
- IC50 (Calu-1 [1]): 145 µM
- IC50 [2]: 103 µM
- IC50 (A549): 103 µM
- Activity (Calf thymus DNA [3]): inactive
- IC50 (PC-3): 108 µM
- IC50 (LS174T): 110 µM
- IC50 [4]: 1230 µM

SMILES: COc1cccc(C(=O)N(C)CCc2c[nH]c3ccccc23)c1
- IC50 (Calu-1 [1]): 139 µM
- IC50 [2]: 81 µM
- IC50 (A549): 95 µM
- Activity (Calf thymus DNA [3]): inactive
- IC50 (PC-3): 85 µM
- IC50 (LS174T): 109 µM
- IC50 [4]: 938 µM

SMILES: CN(CCc1c[nH]c2ccccc12)C(=O)c1ccccc1
- IC50 (Calu-1 [1]): 104 µM
- IC50 [2]: 88 µM
- IC50 (A549): 95 µM
- Activity (Calf thymus DNA [3]): inactive
- IC50 (PC-3): 86 µM
- IC50 (LS174T): 83 µM
- IC50 [4]: 1520 µM

SMILES: CN(CCc1c[nH]c2ccccc12)C(=O)c1cccc(Cl)c1
- IC50 (Calu-1 [1]): 123 µM
- IC50 [2]: 109 µM
- IC50 (A549): 95 µM
- Activity (Calf thymus DNA [3]): inactive
- IC50 (PC-3): 94 µM
- IC50 (LS174T): 118 µM
- IC50 [4]: 1120 µM

SMILES: CN(CCc1c[nH]c2ccccc12)C(=O)c1ccccc1Br
- IC50 (Calu-1 [1]): 122 µM
- IC50 [2]: 95 µM
- IC50 (A549): 95 µM
- Activity (Calf thymus DNA [3]): inactive
- IC50 (PC-3): 59 µM
- IC50 (LS174T): 76 µM
- IC50 [4]: 584 µM

SMILES: CN(CCc1c[nH]c2ccccc12)C(=O)c1ccc(Br)cc1
- IC50 (Calu-1 [1]): 64 µM
- IC50 [2]: 37 µM
- IC50 (A549): 55 µM
- Activity (Calf thymus DNA [3]): inactive
- IC50 (PC-3): 36 µM
- IC50 (LS174T): 52 µM
- IC50 [4]: 580 µM

SMILES: CN(CCc1c[nH]c2ccccc12)C(=O)c1ccc(F)cc1
- IC50 (Calu-1 [1]): 141 µM
- IC50 [2]: 59 µM
- IC50 (A549): 102 µM
- Activity (Calf thymus DNA [3]): inactive
- IC50 (PC-3): 94 µM
- IC50 (LS174T): 87 µM
- IC50 [4]: 850 µM
